The structures appear in SMILES notation.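 Cultured in 96-well plates, cells were exposed to test compound for 48 hours across five concentrations. Abbreviation: GI50, concentration required for 50% inhibition of growth.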 The source made the active and inactive calls. Rule as the data show it: active = GI50 up to about 1.1 µM and inactive = higher.

Among the test systems are K562; KM12; HCT-15; NCI-H23; LOX IMVI; OVCAR-5; 786-0; OVCAR-8; NCI-H460; HOP-62; MCF7; SK-OV-3; MOLT-4; RXF 393; HL-60; A498; NCI-H522; M14; MDA-MB-435; SNB-75.
Holding throughout (assay): NCI tumour cell line growth inhibition, 48 h

Turning to `Cc1cc(C)n(C(C)(C(=O)Cc2ccccc2)n2nc(C)cc2C)n1`, the GI50 is > 100 µM (inactive) in the test with K562; > 100 µM (inactive) with KM12; more than 100 µM with HCT-15; > 100 µM (inactive) in the test with NCI-H23; > 100 µM (inactive) with LOX IMVI; > 100 µM (inactive) with OVCAR-5. Also, the GI50 in the test on 786-0, in the test with OVCAR-8, in the test with NCI-H460, in the test with HOP-62, with MCF7 and in the test with SK-OV-3 was > 100 µM (inactive) in each case. The GI50 with MOLT-4, in the test with RXF 393, in the test with HL-60, in the test with A498, with NCI-H522 and in the test with M14 was > 100 µM (inactive) throughout. Moreover, in the test on MDA-MB-435, the GI50 is > 100 µM (inactive).
Turning to `CCOC(=O)NNC(=O)C1CSC(c2ccccc2)N1C(C)=O` (configuration not stated), the GI50 is > 100 µM (inactive) with K562; > 100 µM (inactive) in the test with KM12; more than 100 µM in the test on HCT-15; > 100 µM (inactive) with NCI-H23; > 100 µM (inactive) with LOX IMVI; > 100 µM (inactive) in the test on OVCAR-5. Moreover, the GI50 with 786-0, in the test with OVCAR-8, in the test on NCI-H460, in the test on HOP-62, in the test on MCF7 and in the test on SK-OV-3 was > 100 µM (inactive) throughout. The GI50 in the test on MOLT-4, in the test on HL-60, in the test with A498, in the test with NCI-H522, in the test on M14 and with SNB-75 was > 100 µM (inactive) in each case. Also, the GI50 with MDA-MB-435 was > 100 µM (inactive).
Consider `CCN1CCC(O)(/C=C/c2cccc(C)c2)C(C(=O)/C=C/c2cccc(C)c2)C1` (configuration not stated), for which the GI50 in the test on K562 was 2.98 µM (inactive); with KM12, 1.56 µM (inactive); with HCT-15, 2.25 µM; in the test on NCI-H23, 2.21 µM (inactive); with LOX IMVI, 2.17 µM (inactive); in the test with OVCAR-5, 2.64 µM (inactive). The GI50 in the test with 786-0 was 2.26 µM (inactive); in the test on OVCAR-8 it was 2.87 µM (inactive); with NCI-H460, 2.12 µM (inactive); in the test with MCF7, 1.9 µM (inactive); in the test with SK-OV-3 it was 3.35 µM (inactive); in the test on MOLT-4, 2.43 µM (inactive). In addition, the GI50 with RXF 393 is 1.67 µM (inactive); in the test on HL-60, 61.4 µM (inactive); with A498, 2.03 µM (inactive); in the test on NCI-H522 it was 2.21 µM (inactive); in the test with M14, 2.58 µM (inactive); in the test on SNB-75, 2.09 µM (inactive). The GI50 with MDA-MB-435 is 2.02 µM (inactive).
Take `COc1cc(C(=O)O[C@@H]2[C@@H](OC(=O)c3cc(OC)c(OC)c(OC)c3)[C@@H](OC)O[C@@H]3CO[C@@H](c4ccccc4)O[C@@H]23)cc(OC)c1OC`: the GI50 in the test with K562 was > 100 µM (inactive); in the test with KM12, > 100 µM (inactive); with HCT-15, more than 100 µM; in the test with NCI-H23 it was > 100 µM (inactive); in the test with LOX IMVI it was > 100 µM (inactive); in the test on OVCAR-5 it was > 100 µM (inactive). Moreover, the GI50 in the test with 786-0, in the test with OVCAR-8, in the test with NCI-H460, in the test on HOP-62, with MCF7 and in the test on SK-OV-3 was > 100 µM (inactive) in each case. In addition, the GI50 in the test with MOLT-4 is > 100 µM (inactive); in the test on HL-60 it was > 100 µM (inactive); in the test with A498, > 100 µM (inactive); in the test on NCI-H522 it was > 100 µM (inactive); with M14, > 100 µM (inactive); with SNB-75 it was 29.6 µM (inactive). Besides, in the test on MDA-MB-435, the GI50 was > 100 µM (inactive).
`COc1ccc(OC2OC(COC(c3ccccc3)(c3ccc(OC)cc3)c3ccc(OC)cc3)C(O)C(O)C2O)cc1` (configuration not stated): the GI50 is 2.84 µM (inactive) in the test with K562; 3.55 µM (inactive) in the test on KM12; 2.86 µM with HCT-15; 3.66 µM (inactive) with NCI-H23; 1.8 µM (inactive) in the test on LOX IMVI; 6.25 µM (inactive) with OVCAR-5. The GI50 is 2.32 µM (inactive) with 786-0; 5.24 µM (inactive) in the test on OVCAR-8; 2.99 µM (inactive) with NCI-H460; 11.4 µM (inactive) with HOP-62; 3.75 µM (inactive) in the test on MCF7; 6.43 µM (inactive) in the test with SK-OV-3. The GI50 in the test on MOLT-4 is 1.33 µM (inactive); in the test on HL-60 it was 2.58 µM (inactive); in the test with A498, 11.7 µM (inactive); with NCI-H522 it was 3.49 µM (inactive); with M14, 2.84 µM (inactive); in the test with SNB-75, 3.32 µM (inactive). The GI50 in the test with MDA-MB-435 was 3.13 µM (inactive).
On to `CC1OC2(CC(OCc3ccccc3)C1OCc1ccccc1)OCCO2` (configuration not stated), for which the GI50 was 77.8 µM (inactive) in the test on K562; 63.7 µM (inactive) in the test with KM12; 28.2 µM in the test on HCT-15; 35 µM (inactive) in the test with NCI-H23; 33.6 µM (inactive) with LOX IMVI; 51.3 µM (inactive) in the test on OVCAR-5. In addition, the GI50 in the test on 786-0 is 61.5 µM (inactive); in the test with OVCAR-8, > 100 µM (inactive); in the test with NCI-H460 it was 32 µM (inactive); in the test with HOP-62, > 100 µM (inactive); in the test with MCF7, 66.2 µM (inactive); in the test with SK-OV-3, > 100 µM (inactive). For the same compound, the GI50 in the test with MOLT-4 was 27.3 µM (inactive); with RXF 393, 16.4 µM (inactive); in the test on HL-60, 20 µM (inactive); in the test on A498, 12.8 µM (inactive); with NCI-H522 it was 31.2 µM (inactive); in the test with M14, 45.7 µM (inactive). In the test with MDA-MB-435, the GI50 is 57 µM (inactive).
With `COc1ccc(CCNC(=O)[C@H]2CCCC[C@@H]2CCO)cc1OC`, the GI50 with K562 was > 100 µM (inactive); in the test on KM12, > 100 µM (inactive); in the test with HCT-15, more than 100 µM; in the test on NCI-H23, > 100 µM (inactive); in the test with OVCAR-5, > 100 µM (inactive); in the test on 786-0, > 100 µM (inactive). Besides, the GI50 in the test on OVCAR-8, with NCI-H460, in the test with HOP-62, in the test with MCF7, in the test with SK-OV-3 and in the test on MOLT-4 was > 100 µM (inactive) in each case. In addition, the GI50 with RXF 393 is > 100 µM (inactive); in the test with HL-60, > 100 µM (inactive); in the test on A498, > 100 µM (inactive); with NCI-H522 it was > 100 µM (inactive); with M14, > 100 µM (inactive); in the test with SNB-75, 88.7 µM (inactive). Also, the GI50 with MDA-MB-435 was > 100 µM (inactive).
Consider `COC(=O)C1CCC(=O)N1C(c1ccccc1)c1cc(OC)c(OC)c(OC)c1` (configuration not stated), for which the GI50 is 21.8 µM (inactive) with K562; 45.8 µM (inactive) in the test on KM12; 42.6 µM in the test on HCT-15; 62.4 µM (inactive) in the test on NCI-H23; 56.2 µM (inactive) with LOX IMVI; > 100 µM (inactive) with OVCAR-5. The GI50 in the test on 786-0 is > 100 µM (inactive); in the test on OVCAR-8, > 100 µM (inactive); in the test with NCI-H460, 43 µM (inactive); in the test with HOP-62, > 100 µM (inactive); with MCF7, 67.9 µM (inactive); with SK-OV-3, > 100 µM (inactive). For the same compound, the GI50 with MOLT-4 is 31.8 µM (inactive); in the test on RXF 393, > 100 µM (inactive); with HL-60, 29.4 µM (inactive); with A498, 82.4 µM (inactive); with NCI-H522, 40.2 µM (inactive); with M14 it was 43 µM (inactive). Besides, the GI50 in the test with MDA-MB-435 was 22.3 µM (inactive).

These data come from ChEMBL document CHEMBL1201862, “PubChem BioAssay data set” (2004).
